Converted amounts (≈) assume the structure as drawn.
Key:
[1] = test system: KARPAS-422; assay: Antiproliferative activity against human KARPAS-422 cells expressing EZH2 mutant assessed as inhibition of cell growth after 14 days by beckman coulter counting method; assay type: functional; conditions: time 14 day
[2] = Lipophilicity, logD of the compound at pH 7.4 by LC with tandem MS analysis; assay type: physicochemical; conditions: buffer
[3] = Permeability across apical to basolateral side in human Caco-2 cells at 10 uM incubated for 2 hrs by LC/MS/MS analysis; assay type: ADME, cell-based; conditions: caco-2, 2 h, 10 µM
[4] = target: Cytochrome P450 2C9 (Homo sapiens, UniProt P11712); assay: Inhibition of CYP2C9 in human liver microsomes using diclofenac as substrate incubated for 10 mins in presence of NADPH by LC-MS/MS analysis; assay type: ADME, Microsome
[5] = target: T1, Cytochrome P450 2D6 (Homo sapiens, UniProt P10635); assay: Inhibition of CYP2D6 in human liver microsomes using bufuralol as substrate incubated for 10 mins in presence of NADPH by LC-MS/MS analysis; assay type: ADME, Microsome
[6] = target: 3',5'-cyclic-AMP phosphodiesterase 4D (Homo sapiens, UniProt Q08499); assay: Inhibition of human Phosphodiesterase 4D
[7] = High throughput solubility of the compound at pH 1 after 16 to 24 hrs by MS/MS analysis; assay type: physicochemical; conditions: buffer, time 16-24 hrs
[8] = High throughput solubility of the compound in FeSSIF after 16 to 24 hrs by MS/MS analysis; assay type: physicochemical; conditions: time 16-24 hrs
[9] = Permeability across basolateral to apical side in human Caco-2 cells incubated for 2 hrs by LC/MS/MS analysis; assay type: ADME, cell-based; conditions: read-out: permeability
[10] = Antitumor activity against human Karpas-422 cells xenografted Athymic BALB/c nude mouse assessed as inhibition of tumor growth at 100 mg/kg, po for 26 days; assay type: functional; design: scale not given: the % may be the effect or the level left; conditions: time 26 day
[11] = In vivo inhibition of PRC2 in PBMC collected from human Karpas-422 cells xenografted Athymic NTac:NIH-Whn nude rat assessed as reduction in H3K27me3 level at 3 mg/kg, po, qd for 57 days measured after 4 hrs of last dose by FACS method; assay type: functional; design: scale not given: the % may be the effect or the level left; conditions: time 57 day
[12] = In vivo inhibition of PRC2 in PBMC collected from human Karpas-422 cells xenografted Athymic NTac:NIH-Whn nude rat assessed as reduction in H3K27me3 level at 10 mg/kg, po, qd for 42 days measured after 4 hrs of last dose by FACS method; assay type: functional; design: scale not given: the % may be the effect or the level left; conditions: time 42 day
[13] = In vivo inhibition of PRC2 in PBMC collected from human Karpas-422 cells xenografted Athymic NTac:NIH-Whn nude rat assessed as reduction in H3K27me3 level at 30 mg/kg, po, qd for 42 days measured after 4 hrs of last dose by FACS method; assay type: functional; design: scale not given: the % may be the effect or the level left; conditions: time 42 day
[14] = Ratio of drug level in mouse blood to plasma; assay type: ADME, cell-free
[15] = Toxicity in Athymic NTac:NIH-Whn nude rat xenografted with human Karpas-422 cells assessed as reduction in body weight at 0.3 to 30 mg/kg, po, qd measured upto 140 days; assay type: organism-based; conditions: in vivo, 3360 h, dose 0.3-30 mg/kg, time < 140 day
[16] = Volume of distribution at steady state in Sprague-Dawley rat at 2 mg/kg, po or 1 mg/kg, iv after 1 week by LC-MS/MS analysis; assay type: ADME, organism-based; conditions: in vivo, 168 h, time 1 weeks
[17] = Terminal half life in Sprague-Dawley rat at 2 mg/kg, po or 1 mg/kg, iv after 1 week by LC-MS/MS analysis; assay type: ADME, organism-based; conditions: in vivo, time 1 weeks, read-out: beta t1/2 (converted)
[18] = Dose normalized AUC in ICR (CD-1) mouse at 2 mg/kg, po or 1 mg/kg, iv after 1 week by LC-MS/MS analysis; assay type: ADME, organism-based; conditions: in vivo, 168 h, time 1 weeks
[19] = Dose normalized AUC in wild type Beagle dog at 2 mg/kg, po or 1 mg/kg, iv after 1 week by LC-MS/MS analysis; assay type: ADME, organism-based, Canis lupus familiaris; conditions: in vivo, 168 h, time 1 weeks
[20] = Dose normalized Cmax in ICR (CD-1) mouse at 2 mg/kg, po or 1 mg/kg, iv after 1 week by LC-MS/MS analysis; assay type: ADME, organism-based; conditions: in vivo, 168 h, time 1 weeks
[21] = Dose normalized Cmax in Sprague-Dawley rat at 2 mg/kg, po or 1 mg/kg, iv after 1 week by LC-MS/MS analysis; assay type: ADME, organism-based; conditions: in vivo, 168 h, time 1 weeks
[22] = Metabolic stability in mouse microsomes assessed as intrinsic clearance; assay type: ADME, Microsome; conditions: read-out: CLH
[23] = Metabolic stability in rat microsomes assessed as intrinsic clearance; assay type: ADME, Microsome; conditions: read-out: CLH
[24] = Metabolic stability in dog microsomes assessed as intrinsic clearance; assay type: ADME, Canis lupus familiaris, Microsome; conditions: read-out: CLH
[25] = Intrinsic clearance in rat hepatocytes measured per 10^6 cells; assay type: ADME, cell-based, Hepatocyte; conditions: read-out: CLH
[26] = Plasma clearance in dog assessed as hepatic extraction; assay type: ADME, cell-free, Canis lupus familiaris; conditions: read-out: ERH
[27] = Plasma protein binding in dog at 1 uM measured after 6 hrs LC-MS/MS analysis; assay type: ADME, cell-free, Canis lupus familiaris; conditions: read-out: PPB (converted)
[28] = Ratio of drug level in human blood to plasma; assay type: ADME, cell-free; conditions: whole blood
[29] = Plasma protein binding in human assessed as unbound fraction at 1 uM measured after 6 hrs LC-MS/MS analysis; assay type: ADME, cell-free
[30] = target: T2, Alpha-2A adrenergic receptor (Homo sapiens, UniProt P08913); assay: Agonist activity at adrenergic receptor alpha2a (unknown origin); assay type: functional
T2 sequence (P08913 whole entry): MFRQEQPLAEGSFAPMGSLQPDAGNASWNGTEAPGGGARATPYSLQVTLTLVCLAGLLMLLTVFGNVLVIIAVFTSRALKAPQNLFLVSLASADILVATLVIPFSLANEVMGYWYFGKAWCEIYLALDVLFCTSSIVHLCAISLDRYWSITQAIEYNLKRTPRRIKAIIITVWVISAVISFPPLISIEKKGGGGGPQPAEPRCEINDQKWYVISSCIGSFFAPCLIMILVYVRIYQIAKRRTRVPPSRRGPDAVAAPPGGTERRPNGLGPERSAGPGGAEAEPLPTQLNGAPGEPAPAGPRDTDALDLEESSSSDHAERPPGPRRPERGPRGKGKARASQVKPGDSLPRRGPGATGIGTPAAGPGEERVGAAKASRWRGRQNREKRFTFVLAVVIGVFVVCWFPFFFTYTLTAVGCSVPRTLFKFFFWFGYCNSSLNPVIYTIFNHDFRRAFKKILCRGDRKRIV

[31] = target: Voltage-gated inwardly rectifying potassium channel KCNH2 (Homo sapiens, UniProt Q12809); assay: Inhibition of hERG potassium channel in HEK293 cells by manual patch clamp assay; assay type: toxicity, cell-based
[32] = test system: NIH3T3; assay: Phototoxicity in mouse 3T3 cells by neutral red uptake assay; assay type: toxicity, cell-based
[33] = Genotoxicity in Salmonella typhimurium TA98 in presence of S9 fraction by Ames test; assay type: toxicity, subcellular; conditions: salmonella enterica subsp. enterica serovar typhimurium
[34] = target: T1, Cytochrome P450 2D6; assay: Inhibition of CYP2D6 human liver microsomes using bufuralol as substrate incubated for 15 mins by LC-MS/MS analysis; assay type: ADME, Microsome
[35] = Toxicity in rat assessed as effect on adrenal gland; conditions: in vivo
[36] = cells; conditions: Homo sapiens, G-401, 48 h
Description: Inhibition of PRC2 in human G-401 cells assessed as H3K27 methylation status incubated for 48 hrs by ELISA method

T1 sequence (P10635 whole entry): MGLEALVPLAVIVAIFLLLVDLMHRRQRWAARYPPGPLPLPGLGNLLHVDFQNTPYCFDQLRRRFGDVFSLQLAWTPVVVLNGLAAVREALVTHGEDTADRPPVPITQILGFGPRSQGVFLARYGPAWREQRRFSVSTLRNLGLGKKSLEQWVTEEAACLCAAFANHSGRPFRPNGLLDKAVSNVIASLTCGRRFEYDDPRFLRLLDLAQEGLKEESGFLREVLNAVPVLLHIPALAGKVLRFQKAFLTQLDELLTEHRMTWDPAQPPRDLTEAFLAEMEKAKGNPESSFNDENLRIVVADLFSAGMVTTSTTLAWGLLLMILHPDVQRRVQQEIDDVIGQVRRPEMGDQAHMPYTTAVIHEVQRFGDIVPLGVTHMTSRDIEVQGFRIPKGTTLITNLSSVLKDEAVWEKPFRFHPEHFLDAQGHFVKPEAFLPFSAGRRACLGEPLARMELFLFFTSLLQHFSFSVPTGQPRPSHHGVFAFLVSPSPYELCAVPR
Sequence of Cytochrome P450 2C9 (P11712 whole entry): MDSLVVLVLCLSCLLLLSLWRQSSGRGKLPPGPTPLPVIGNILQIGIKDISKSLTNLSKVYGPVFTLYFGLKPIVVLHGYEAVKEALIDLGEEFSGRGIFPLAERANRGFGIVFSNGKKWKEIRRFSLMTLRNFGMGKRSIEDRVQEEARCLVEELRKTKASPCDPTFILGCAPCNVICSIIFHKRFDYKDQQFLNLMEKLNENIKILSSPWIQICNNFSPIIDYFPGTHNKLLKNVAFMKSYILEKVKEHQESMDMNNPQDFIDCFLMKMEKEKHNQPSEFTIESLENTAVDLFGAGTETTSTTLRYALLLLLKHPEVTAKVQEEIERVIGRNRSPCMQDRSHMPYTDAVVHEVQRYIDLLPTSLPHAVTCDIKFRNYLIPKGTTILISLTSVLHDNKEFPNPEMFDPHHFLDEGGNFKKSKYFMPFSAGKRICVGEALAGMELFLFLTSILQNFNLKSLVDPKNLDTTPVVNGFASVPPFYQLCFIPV
Sequence of Voltage-gated inwardly rectifying potassium channel KCNH2 (Q12809 whole entry): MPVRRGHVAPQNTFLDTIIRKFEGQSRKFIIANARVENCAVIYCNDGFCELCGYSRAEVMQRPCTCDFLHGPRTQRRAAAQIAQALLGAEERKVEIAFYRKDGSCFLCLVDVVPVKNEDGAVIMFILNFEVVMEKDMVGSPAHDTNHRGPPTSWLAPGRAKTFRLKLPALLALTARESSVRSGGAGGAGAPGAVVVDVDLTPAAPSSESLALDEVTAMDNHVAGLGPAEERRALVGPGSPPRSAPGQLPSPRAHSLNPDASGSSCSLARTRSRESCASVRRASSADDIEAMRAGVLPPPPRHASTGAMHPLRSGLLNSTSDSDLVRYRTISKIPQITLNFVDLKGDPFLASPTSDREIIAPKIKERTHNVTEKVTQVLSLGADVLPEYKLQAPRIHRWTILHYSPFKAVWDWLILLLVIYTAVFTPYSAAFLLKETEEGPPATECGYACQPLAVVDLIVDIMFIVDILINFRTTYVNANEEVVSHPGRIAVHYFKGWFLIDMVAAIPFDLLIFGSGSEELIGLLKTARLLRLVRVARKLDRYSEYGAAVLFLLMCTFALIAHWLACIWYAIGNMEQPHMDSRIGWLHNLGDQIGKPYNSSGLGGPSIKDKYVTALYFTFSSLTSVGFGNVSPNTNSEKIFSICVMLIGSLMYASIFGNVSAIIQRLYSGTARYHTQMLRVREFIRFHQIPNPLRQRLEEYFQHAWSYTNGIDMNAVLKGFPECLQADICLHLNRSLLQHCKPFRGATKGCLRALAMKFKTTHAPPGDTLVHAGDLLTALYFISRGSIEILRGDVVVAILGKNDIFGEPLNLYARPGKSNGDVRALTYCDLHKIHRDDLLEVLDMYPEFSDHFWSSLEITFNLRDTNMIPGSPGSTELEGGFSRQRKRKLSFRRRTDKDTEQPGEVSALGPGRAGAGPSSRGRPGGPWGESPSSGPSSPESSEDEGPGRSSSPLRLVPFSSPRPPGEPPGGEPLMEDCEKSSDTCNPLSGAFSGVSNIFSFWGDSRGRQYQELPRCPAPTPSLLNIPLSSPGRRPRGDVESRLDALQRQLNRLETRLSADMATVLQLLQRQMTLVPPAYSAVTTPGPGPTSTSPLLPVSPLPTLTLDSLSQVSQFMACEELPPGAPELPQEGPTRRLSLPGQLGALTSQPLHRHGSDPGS
Sequence of 3',5'-cyclic-AMP phosphodiesterase 4D (Q08499 whole entry): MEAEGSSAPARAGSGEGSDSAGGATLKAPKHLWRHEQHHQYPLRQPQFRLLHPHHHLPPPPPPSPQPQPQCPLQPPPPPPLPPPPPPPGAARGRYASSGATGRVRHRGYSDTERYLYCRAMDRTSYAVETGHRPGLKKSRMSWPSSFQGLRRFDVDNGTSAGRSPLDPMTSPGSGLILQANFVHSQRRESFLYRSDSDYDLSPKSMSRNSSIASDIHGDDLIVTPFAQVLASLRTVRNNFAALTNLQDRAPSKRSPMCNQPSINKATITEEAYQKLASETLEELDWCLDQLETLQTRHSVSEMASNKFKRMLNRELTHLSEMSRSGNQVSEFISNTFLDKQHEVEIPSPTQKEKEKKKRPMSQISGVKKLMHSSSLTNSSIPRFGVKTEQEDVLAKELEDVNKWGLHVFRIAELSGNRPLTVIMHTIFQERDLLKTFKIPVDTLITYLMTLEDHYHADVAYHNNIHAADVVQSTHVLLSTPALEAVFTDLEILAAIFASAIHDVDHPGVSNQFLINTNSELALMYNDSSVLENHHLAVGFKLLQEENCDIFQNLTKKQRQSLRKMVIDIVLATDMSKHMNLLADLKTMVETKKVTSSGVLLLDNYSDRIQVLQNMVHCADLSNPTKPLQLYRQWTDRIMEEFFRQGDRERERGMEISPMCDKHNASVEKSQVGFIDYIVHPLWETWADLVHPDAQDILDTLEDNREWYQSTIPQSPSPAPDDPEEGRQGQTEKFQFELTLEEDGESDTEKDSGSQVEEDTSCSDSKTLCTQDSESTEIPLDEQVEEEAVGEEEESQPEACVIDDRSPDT

GI50 ([1]; Homo sapiens, KARPAS-422, 336 h): 4 µM
GI90 [1]: 8 µM
logD [2]: 3.88
permeability [3]: 2.8 10^-6 cm/s
IC50 [4]: > 20 µM
IC50 [5]: > 20 µM
IC50 [6]: 6.4 µM
solubility [7]: > 13000 µM
solubility [8]: 57 µM (≈ 21.5 µg/mL)
Papp B→A at 2 h [9]: 37 ×10⁻⁶ cm/s
blood plasma ratio [14]: 1.03
Vdss [16]: 2 L/kg
half-life [17]: 3.2 h
AUC/dose [18]: 884 nM·h
AUC/dose [19]: 2093 nM·h
Cmax/dose [20]: 356 nM
Cmax/dose [21]: 427 nM
microsomal CLint [22]: 22 µL/min/mg
microsomal CLint [23]: 22 µL/min/mg
microsomal CLint [24]: 91 µL/min/mg
hepatocyte CLint [25]: 12 µL/min/1e6 cells
hepatic extraction ratio [26]: 0.35
fraction unbound at 6 h, 1 µM [27]: 0.09
blood plasma ratio [28]: 0.78
fraction unbound at 6 h, 1 µM [29]: 0.08
IC50 [30]: 9.6 µM
IC50 [34]: > 18 µM
IC50 [36]: 3 µM
Structure (SMILES): Cc1ncccc1-c1cnc(NCc2c(F)ccc3c2CCO3)n2cnnc12
Activity [10]: 100%
Activity [11]: 80%
Activity [12]: 97%
Activity [13]: 93%
Activity [15]: Non-Toxic
IC50 [31]: > 30 µM
Activity [32]: Non-Toxic
Activity [33]: Non-Toxic
Activity [35]: Non-Toxic

Source: ChEMBL document CHEMBL5154826, “Discovery of the Clinical Candidate MAK683: An EED-Directed, Allosteric, and Selective PRC2 Inhibitor for the Treatment of Advanced Malignancies” (J Med Chem, 2022)
